What was measured:
[1] = 101 kPa, Liquid; for viscosity: Capillary tube (Ostwald / Ubbelohde) method; for mass density: Vibrating tube method
[2] = xn = mol fraction of the nth substance listed; details: 101 kPa, Liquid; for viscosity: Capillary tube (Ostwald / Ubbelohde) method; for mass density: Vibrating tube method

CCCCCCCCCC [decane]
[1]
Details	mass density [kg/m3]	viscosity [mPa·s]
283.15 K	737.54	1.082
293.15 K	730.01	0.925
298.15 K	726.22	0.858
303.15 K	722.44	0.797

CCCCCCCCCC [decane] + CCCCCCCCN(CCCCCCCC)CCCCCCCC
[2], x2 = 0
Details	mass density [kg/m3]	viscosity [mPa·s]
283.15 K	737.54	1.082
293.15 K	730.01	0.925
303.15 K	722.44	0.797

CCCCCCC [heptane]
[1]
Details	mass density [kg/m3]	viscosity [mPa·s]
283.15 K	692.44	0.469
293.15 K	684.05	0.42
298.15 K	679.78	0.397
303.15 K	675.54	0.377

CCCCCCC [heptane] + CCCCCCCCN(CCCCCCCC)CCCCCCCC
[2], x2 = 0
Details	mass density [kg/m3]	viscosity [mPa·s]
283.15 K	692.44	0.469
293.15 K	684.05	0.42
303.15 K	675.54	0.377

CCCCCCCCC [nonane]
[1]
Details	mass density [kg/m3]	viscosity [mPa·s]
283.15 K	725.58	0.826
293.15 K	717.86	0.713
298.15 K	713.95	0.667
303.15 K	710.06	0.623

CCCCCCCCC [nonane] + CCCCCCCCN(CCCCCCCC)CCCCCCCC
[2], x2 = 0
Details	mass density [kg/m3]	viscosity [mPa·s]
283.15 K	725.58	0.826
293.15 K	717.86	0.713
303.15 K	710.06	0.623

CCCCCCCC [octane]
[1]
Details	mass density [kg/m3]	viscosity [mPa·s]
283.15 K	710.61	0.613
293.15 K	702.6	0.541
298.15 K	698.55	0.51
303.15 K	694.5	0.481

CCCCCCCC [octane] + CCCCCCCCN(CCCCCCCC)CCCCCCCC
[2], x2 = 0
Details	mass density [kg/m3]	viscosity [mPa·s]
283.15 K	710.61	0.613
293.15 K	702.6	0.541
303.15 K	694.5	0.481

CCCCCCCCN(CCCCCCCC)CCCCCCCC [trioctylamine]
[1]
Details	mass density [kg/m3]	viscosity [mPa·s]
283.15 K	817.08	14.25
293.15 K	810.48	9.957
298.15 K	807.26	8.392
303.15 K	803.88	7.114

CCCCCCCCN(CCCCCCCC)CCCCCCCC [trioctylamine] + CCCCCCCC
[2]
Details	mass density, 283.15 K [kg/m3]	mass density, 293.15 K [kg/m3]	mass density, 303.15 K [kg/m3]	viscosity, 283.15 K [mPa·s]	viscosity, 293.15 K [mPa·s]	viscosity, 303.15 K [mPa·s]
x1 = 0.1044	737.14	729.58	721.95	1.045	0.899	0.78
x1 = 0.2005	755.2	747.83	740.4	1.63	1.356	1.145
x1 = 0.2992	769.49	762.3	755.07	2.385	1.933	1.593
x1 = 0.4001	780.98	773.93	766.85	3.399	2.665	2.145
x1 = 0.4977	789.85	782.91	775.97	4.545	3.491	2.734
x1 = 0.6012	797.54	790.72	783.87	5.969	4.482	3.46
x1 = 0.7015	803.68	796.94	790.09	7.556	5.594	4.231
x1 = 0.7978	808.69	802	795.3	9.424	6.848	5.092
x1 = 0.897	813.09	806.45	799.81	11.61	8.242	6.01
x1 = 1	817.08	810.48	803.88	14.25	9.957	7.114

Reference: the NIST ThermoML archive (doi:10.1016/j.jct.2013.09.017)
